Test results published in US20090069384A1, “THIENOPYRROLES USEFUL IN THE TREATMENT OF INFLAMMATION” (BIOLIPOX AB, priority 2005, published 2009).

Target: T1, mPGES-1 (Homo sapiens, UniProt O14684)
T1 construct: made in house; host or cells: E. coli (membrane fraction)
T1 sequence (O14684 1-152): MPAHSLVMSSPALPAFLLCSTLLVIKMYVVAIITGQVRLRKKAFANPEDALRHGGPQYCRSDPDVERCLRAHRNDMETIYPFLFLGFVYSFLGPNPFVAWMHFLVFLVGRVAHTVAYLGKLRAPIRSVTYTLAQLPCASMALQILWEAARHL
Test: mPGES-1 inhibition assay (conversion of PGH2 to PGE2, HPLC analysis)
Assay type: biochemical
Conditions: mPGES-1 expressed in E. coli, membrane fraction; room temperature; PGH2 substrate, 60 seconds
Protocol: In the assay mPGES-1 catalyses the reaction where the substrate PGH2 is converted to PGE2. mPGES-1 is expressed in E. coli and the membrane fraction is dissolved in 20 mM NaPi-buffer pH 8.0 and stored at −80° C. […] The stop solution consists of H2O/MeCN (7/3), containing FeCl2 (25 mM) and HCl (0.15 M). The assay is performed at room temperature in 96-well plates.
The following is added chronologically to each well: • 1. 100 uL mPGES-1 in KPi-buffer with glutathione. Total protein concentration: 0.02 mg/mL. • 2. 1 μL inhibitor in DMSO. Incubation of the plate at room temperature for 25 minutes. • 3. 4 μL of a 0.25 mM PGH2 solution. Incubation of the plate at room temperature for 60 seconds. • 4. 100 μL stop solution. • 180 μL per sample is analyzed with HPLC.

Row | SMILES | IC50 [µM]
1 | Cc1ccc(-n2c(C(=O)O)cc3sc(-c4ccc(OC(C)C)cc4)cc32)cc1[N+](=O)[O-] [Example 28, 2-(4-Isopropoxyphenyl)-4-(4-methyl-3-nitrophenyl)thieno[3,2-b]pyrrole-5-carboxylic Acid] | 5.1
2 | Cc1ccc(-c2cc3c(s2)c(I)c(C(=O)O)n3Cc2cccc(Cl)c2)s1 [Example 4, 4-(3-Chlorobenzyl)-6-iodo-2-(5-methylthien-2-yl)thieno[3,2-b]pyrrole-5-carboxylic Acid] | 1.3
3 | CC(C)Oc1ccc(-c2cc3cc(C(=O)O)n(Cc4cccc(Cl)c4)c3s2)cc1 [Example 35, 6-(3-Chlorobenzyl)-2-(4-isopropoxyphenyl)-6H-thieno[2,3-b]pyrrole-5-carboxylic Acid] | 4.7
4 | CC(C)(C)c1ccc(-c2cc3c(s2)c(-c2ccc(C(C)(C)C)cc2)c(C(=O)O)n3Cc2cccc(Cl)c2)cc1 [Example 2, 2,6-Bis-(4-tert-butylphenyl)-4-(3-chlorobenzyl)thieno[3,2-b]pyrrole-5-carboxylic Acid] | 0.39
